Measured values as given in patent publication US12383542B2, “Methods of treating ovarian cancer” (TESARO, INC., priority 2016, dated 2025).
“And” between values parts separate entries of the source, which are not always exact repeats. Identical values can stand only once. Counter-ions that a name gives are not always drawn. Like-named read-outs stand apart in the source and are kept apart here.

Key:
[1] = Text: Patients continued to receive their assigned treatment until disease progression, unacceptable toxicity, death, withdrawal of consent, and/or lost to follow-up. Dose interruption and/or reduction were available at any time for any grade toxicity considered intolerable by the patient.
Dose interruption and/or reduction could be implemented at any time for any grade toxicity considered intolerable by the patient. Treatment was required to be interrupted for any non-hematologic AE that was Grade 3 or 4, per NCI CTCAE v.4.02 if the Investigator considered the event to be related to administration of study drug. If toxicity was appropriately resolved to baseline or Grade 1 or less within 28 days, the patient was allowed to restart treatment with study drug, but with a dose level reduction according to Table 4, if prophylaxis was not considered feasible.

[2] = in vivo
Protocol: Patients with ovarian cancer regardless of platinum sensitivity and burden of disease were randomized to either Group A or Group B with 6 patients assigned to each group. […] In Group B, patients fasted for at least 10 hours before consuming a high fat meal.

[3] = tested on: cancer cell lines that have been silenced for BRCA-1 or BRCA-2, or carry BRCA-1 or BRCA-2 mutations
[4] = tested on: Ewing's sarcoma, ALL, NSCLC, SCLC cell lines and tumor cell lines carrying homozygous inactivation of the ATM gene
[5] = tested on: MDA-MB-436, CAPAN-1, GRANTA-519, OVCAR3, HT29, DLD-1, patient derived Ewing's sarcoma and TNBC xenograft models; conditions: xenograft models in mice
PARP activity [6] = conditions: tumor homogenates
PARP activity [7] = conditions: mice dosed with niraparib
[8] = tested on: platinum-sensitive recurrent ovarian cancer; conditions: for patients with PFS events at the time of unblinding: patients entering with PR; for Time to second subsequent treatment, HR: <40% of events
PARP activity [9] = test: cells
ovarian cancer [10] = conditions: cited from earlier work
ovarian cancer [11] = conditions: cited from earlier work; remark: listed apart in the source
[12] = tested on: platinum-sensitive epithelial ovarian cancer; conditions: cited from earlier work
[13] = tested on: advanced BRCA-mutant ovarian cancer; conditions: cited from earlier work
ovarian cancer [14] = conditions: relatively small sample size; cited from earlier work
[15] = all patients treated with niraparib
[16] = HRDneg group, listed as Niraparib

## NC(=O)c1cccc2cn(-c3ccc([C@@H]4CCCNC4)cc3)nc12 [niraparib, (3S)-3-[4-{7-(aminocarbonyl)-2H-indazol-2-yl}phenyl]piperidine]
[1]; ITT population
  rate of MDS/AML: 1.3%
[1]; [15]
  treatment-emergent grade 3/4 anemia: 24.8%
  treatment-emergent grade 3/4 neutropenia: 11.2%
  treatment-emergent grade 3/4 thrombocytopenia: 28.3%
[1]; human, in vivo, 300 mg QD
  grade 5 events: No grade 5 events occurred
[1]; in vivo
  TEAEs leading to dose reduction: 67%
  TEAEs leading to treatment discontinuation: 15%
  TEAEs leading to treatment interruption: 69%
  grade 3 or 4 bleeding event: No patient
  incidence of CTCAE Grade ≥3 TEAEs: 74%
  incidence of SAEs: 30%
  incidence of treatment-related TEAEs: 98%
  patients remaining on niraparib for the duration of the study: ~85%
  patients with at least 1 TEAE: all patients
[1]; overall niraparib treated population, after decrease by day 15
  mean platelet count over time: generally returned to near baseline by Cycle 4
[1]; patients who received niraparib (5 of 367)
  incidence of MDS/AML: 1.4% and 1%
[2]
  bioavailability in fed versus fasted state: substantially similar
[3]; BRCA-defective cells
  consequence on cell cycle: cell cycle arrest in G2/M followed by apoptosis
[3]; compared to wild type counterparts
  anti-proliferative activity: selective anti-proliferative activity
[4]
  cytotoxicity: selectively cytotoxic
Normal human cells
  activity on normal human cells: weak activity
[5]
  antitumor activity: strong antitumor activity
PARP activity [6]
  target engagement (PARP activity): Target engagement has also been demonstrated
PARP activity [7]
  PARP activity in PBMCs: Inhibition of PARP activity
[8]; HRDneg group
  % of Patients without Progression or Death at 6 Months: 54%
  % of Patients without Progression or Death at 12 Months: 27%
  % of Patients without Progression or Death at 18 Months: 19%
[8]; [16]
  % of Patients without Progression or Death at 12 Months: 27%
  % of Patients without Progression or Death at 18 Months: 19%
[8]; HRDpos group
  % of Patients without Progression or Death at 6 Months: 69%
  % of Patients without Progression or Death at 12 Months: 51%
  % of Patients without Progression or Death at 18 Months: 37%
[8]; both cohorts, versus placebo
  chemotherapy-free interval: significantly improved
  time to first subsequent treatment: significantly improved
[8]; combined cohorts, data immature, 80% of patients censored
  Overall Survival, HR: HR 0.73 (95% CI: 0.480, 1.125)
[8]; combined study population (gBRCAmut and non-gBRCAmut), exploratory pooled analysis
  Median PFS: 11.3 months
[8]; gBRCAmut and non-gBRCAmut cohorts
  PFS by niraparib dose of longest duration (100, 200, 300 mg): consistent with the overall population
[8]; gBRCAmut cohort
  % of Patients without Progression or Death at 6 Months: 80%
  % of Patients without Progression or Death at 12 Months: 62%
  % of Patients without Progression or Death at 18 Months: 50%
  Median PFS: 21.0 Months
  progression-free survival 2: 25.8 months
[8]; gBRCAmut cohort, listed as Niraparib
  Median PFS: 21.0 Months and 21.0 (12.9, NE) Months
[8]; gBRCAmut
  patients with PFS events at the time of unblinding: 45%
[8]; gBRCAmut, data immature
  Time to second subsequent treatment, HR: HR 0.48 (95% CI: 0.272, 0.851)
[8]; in vivo
  impact of treatment on OS: no detrimental impact
[8]; non-gBRCAmut cohort
  % of Patients without Progression or Death at 6 Months: 61%
  % of Patients without Progression or Death at 12 Months: 41%
  % of Patients without Progression or Death at 18 Months: 30%
[8]; non-gBRCAmut, HRD negative
  Median PFS: 6.9 Months
[8]; non-gBRCAmut, HRD negative, listed as Niraparib
  Median PFS: 6.9 Months and 6.9 (5.6, 9.6) Months
[8]; non-gBRCAmut, HRD-positive
  Median PFS: 12.9 Months
[8]; non-gBRCAmut, HRD-positive, listed as Niraparib
  Median PFS: 12.9 Months and 12.9 (8.1, 15.9) Months
[8]; non-gBRCAmut, HRDpos/BRCAwt
  Median PFS: 9.3 Months
[8]; non-gBRCAmut, HRDpos/somatic BRCAmut
  Median PFS: 20.9 Months
[8]; non-gBRCAmut
  patients with PFS events at the time of unblinding: 56%
[8]; non-gBRCAmut, data immature
  Time to second subsequent treatment, HR: HR 0.74 (95% CI: 0.519, 1.066)
[8]; overall non-gBRCAmut cohort
  Median PFS: 9.3 Months
  median PFS 2: 18.64 months
[8]; overall non-gBRCAmut cohort, listed as Niraparib
  Median PFS: 9.3 Months and 9.3 (7.2, 11.2) Months
[8]; pooled cohorts, versus placebo
  PFS2-PFS1 (efficacy of next-line treatment): similar
PARP activity [9]; read-out: IC50 of PARP activity in cells
  IC50: ~0.004 µM
PARP activity [9]; read-out: inhibitory concentration at 90% of control (IC90)
  IC90: ~0.05 µM

## O=C(c1cc(Cc2n[nH]c(=O)c3ccccc23)ccc1F)N1CCN(C(=O)C2CC2)CC1 [olaparib, 4-[(3-{[4-(cyclopropylcarbonyl)piperazin-1-yl]carbonyl}-4-fluorophenyl)methyl]phthalazin-1(2H)-one]
Ovarian cancer [10]; patients with BRCA mutations
  Median PFS: 11.2 months
Ovarian cancer [10]; phase II maintenance study
  planned analysis of the subset of patients with BRCA mutations: a clear advantage
Ovarian cancer [11]; 17 patients with BRCA1 or BRCA2 mutations
  responses: 7
Ovarian cancer [11]; 46 patients without these mutations
  responses: 11
[12]; human, in vivo
  serious adverse events versus control group: more common
[12]; women with germline BRCA mutations, versus placebo or no treatment
  change in overall survival: no significant change

## CNCc1ccc(-c2[nH]c3cc(F)cc4c3c2CCNC4=O)cc1 [rucaparib, 8-fluoro-2-{4-[(methylamino)methyl]phenyl}-1,3,4,5-tetrahydro-6H-azepino[5,4,3-cd]indol-6-one ((1S,4R)-7,7-dimethyl-2-oxobicyclo[2.2.1]hept-1-yl)methanesulfonic acid salt]
[13]; 600 mg orally twice daily, 106 patients
  Response assessment by independent radiology review: 42%
[13]; independent radiology review
  median DOR: 6.7 months
[13]; platinum-refractory patients
  Investigator-assessed ORR: 0%
[13]; platinum-resistant patients
  Investigator-assessed ORR: 25%
[13]; platinum-sensitive patients
  Investigator-assessed ORR: 66%

## C[C@]1(c2nc3c(C(N)=O)cccc3[nH]2)CCCN1 [veliparib, 2-[(R)-2-methylpyrrolidin-2-yl]-1H-benzimidazole-4-carboxamide]
Ovarian cancer [14]
  effect on the progression of ovarian cancer: unable to show any effect
